Numbers after ± are expanded uncertainties.
Test: mn = molality of the nth substance listed, in mol/kg
Conditions: 101 kPa, Liquid; for mass density: Pycnometric method; for viscosity: Capillary tube (Ostwald / Ubbelohde) method; for speed of sound: Linear variable-path acoustic interferometer

O=[N+]([O-])[O-].O=[N+]([O-])[O-].[Mg+2] [magnesium nitrate] + O
mass density (319.45 K, m1 = 3.118): 1259.2 ± 0.8 kg/m3 | mass density (319.5 K, m1 = 3.17): 1268.1 ± 0.9 kg/m3 | mass density (319.55 K, m1 = 0.0528): 994.98 ± 0.7 kg/m3 | mass density (319.55 K, m1 = 1.262): 1110.2 ± 0.8 kg/m3 | mass density (319.9 K, m1 = 2.131): 1184.8 ± 0.8 kg/m3 | mass density (319.9 K, m1 = 4.728): 1364.8 ± 1 kg/m3 | mass density (319.95 K, m1 = 0.0145): 990.65 ± 0.67 kg/m3 | mass density (320.2 K, m1 = 5.134): 1388.4 ± 1 kg/m3 | mass density (320.25 K, m1 = 2.793): 1235.8 ± 0.9 kg/m3 | mass density (320.3 K, m1 = 1.827): 1159.7 ± 0.8 kg/m3 | mass density (320.3 K, m1 = 4.039): 1319.5 ± 0.9 kg/m3 | mass density (320.65 K, m1 = 0.2491): 1014.7 ± 0.8 kg/m3 | mass density (320.85 K, m1 = 1.694): 1146.9 ± 0.8 kg/m3 | mass density (320.9 K, m1 = 0.3405): 1023.3 ± 0.8 kg/m3 | mass density (320.9 K, m1 = 5.282): 1396.6 ± 1 kg/m3 | mass density (321.25 K, m1 = 0.5931): 1047.4 ± 0.7 kg/m3 | mass density (321.35 K, m1 = 3.096): 1257.2 ± 0.9 kg/m3 | mass density (321.6 K, m1 = 2.493): 1211.3 ± 1 kg/m3 | mass density (321.75 K, m1 = 0.9898): 1085.2 ± 0.7 kg/m3 | mass density (321.8 K, m1 = 4.285): 1335.1 ± 0.9 kg/m3 | mass density (321.9 K, m1 = 4.728): 1363.5 ± 1.3 kg/m3 | mass density (321.95 K, m1 = 0.0528): 993.94 ± 0.7 kg/m3 | mass density (322.1 K, m1 = 0.0145): 989.61 ± 0.7 kg/m3 | mass density (322.2 K, m1 = 4.883): 1370 ± 1.2 kg/m3 | mass density (322.25 K, m1 = 2.793): 1234.5 ± 0.9 kg/m3 | mass density (322.35 K, m1 = 2.584): 1219.2 ± 0.9 kg/m3 | mass density (322.45 K, m1 = 3.704): 1297.7 ± 0.9 kg/m3 | mass density (322.45 K, m1 = 4.039): 1318.2 ± 2.3 kg/m3 | mass density (322.75 K, m1 = 0.2491): 1013.6 ± 0.7 kg/m3 | mass density (322.75 K, m1 = 4.051): 1318.5 ± 0.9 kg/m3 | mass density (322.8 K, m1 = 4.97): 1375.7 ± 1 kg/m3 | mass density (323.05 K, m1 = 4.403): 1341.3 ± 1.2 kg/m3 | viscosity (323.15 K, m1 = 0.0145): 0.5591 ± 0.0074 mPa·s | viscosity (323.15 K, m1 = 0.0528): 0.5708 ± 0.0076 mPa·s | viscosity (323.15 K, m1 = 0.2491): 0.6023 ± 0.0079 mPa·s | viscosity (323.15 K, m1 = 0.5931): 0.6703 ± 0.0088 mPa·s | viscosity (323.15 K, m1 = 0.9898): 0.7676 ± 0.01 mPa·s | viscosity (323.15 K, m1 = 1.262): 0.8482 ± 0.011 mPa·s | viscosity (323.15 K, m1 = 1.827): 1.028 ± 0.013 mPa·s | viscosity (323.15 K, m1 = 2.131): 1.145 ± 0.015 mPa·s | viscosity (323.15 K, m1 = 2.584): 1.353 ± 0.017 mPa·s | viscosity (323.15 K, m1 = 3.096): 1.629 ± 0.021 mPa·s | viscosity (323.15 K, m1 = 3.329): 1.772 ± 0.023 mPa·s | viscosity (323.15 K, m1 = 3.704): 2.028 ± 0.026 mPa·s | viscosity (323.15 K, m1 = 4.039): 2.319 ± 0.03 mPa·s | viscosity (323.15 K, m1 = 4.728): 3.107 ± 0.04 mPa·s | viscosity (323.15 K, m1 = 4.907): 3.418 ± 0.045 mPa·s | viscosity (323.15 K, m1 = 5.282): 3.975 ± 0.052 mPa·s | speed of sound (323.15 K, m1 = 0.0145): 1545.7 ± 1.9 m/s | speed of sound (323.15 K, m1 = 0.0528): 1548 ± 1.9 m/s | speed of sound (323.15 K, m1 = 0.2491): 1559.2 ± 1.9 m/s | speed of sound (323.15 K, m1 = 0.3405): 1563.6 ± 1.9 m/s | speed of sound (323.15 K, m1 = 0.6173): 1576.6 ± 1.9 m/s | speed of sound (323.15 K, m1 = 0.896): 1593.9 ± 1.9 m/s | speed of sound (323.15 K, m1 = 0.9898): 1600.3 ± 1.9 m/s | speed of sound (323.15 K, m1 = 1.262): 1614.9 ± 1.9 m/s | speed of sound (323.15 K, m1 = 1.525): 1631.4 ± 1.9 m/s | speed of sound (323.15 K, m1 = 1.827): 1651.2 ± 1.9 m/s | speed of sound (323.15 K, m1 = 2.131): 1667.3 ± 2 m/s | speed of sound (323.15 K, m1 = 2.493): 1689.2 ± 2 m/s | speed of sound (323.15 K, m1 = 2.793): 1707.5 ± 2 m/s | speed of sound (323.15 K, m1 = 3.118): 1725.2 ± 2 m/s | speed of sound (323.15 K, m1 = 3.17): 1731.8 ± 2 m/s | speed of sound (323.15 K, m1 = 3.501): 1744 ± 2 m/s | speed of sound (323.15 K, m1 = 3.757): 1758.7 ± 2 m/s | speed of sound (323.15 K, m1 = 4.051): 1770.9 ± 2 m/s | speed of sound (323.15 K, m1 = 4.285): 1783.2 ± 2 m/s | speed of sound (323.15 K, m1 = 4.403): 1789.3 ± 2 m/s | speed of sound (323.15 K, m1 = 4.883): 1811.5 ± 2.1 m/s | speed of sound (323.15 K, m1 = 5.134): 1828.2 ± 2.1 m/s | mass density (323.15 K, m1 = 5.282): 1395.1 ± 1 kg/m3 | mass density (323.4 K, m1 = 0.6173): 1049 ± 0.7 kg/m3 | mass density (323.5 K, m1 = 1.525): 1130.6 ± 0.8 kg/m3 | mass density (323.5 K, m1 = 3.757): 1300.1 ± 0.8 kg/m3 | mass density (323.55 K, m1 = 3.17): 1265.4 ± 1.5 kg/m3 | mass density (323.6 K, m1 = 3.118): 1256.7 ± 1.5 kg/m3 | mass density (323.75 K, m1 = 1.262): 1107.8 ± 0.8 kg/m3 | mass density (323.95 K, m1 = 0.9898): 1084 ± 0.8 kg/m3 | mass density (323.95 K, m1 = 2.131): 1182.5 ± 0.9 kg/m3 | mass density (324.25 K, m1 = 1.827): 1157.4 ± 0.9 kg/m3 | mass density (324.45 K, m1 = 5.134): 1385.4 ± 1 kg/m3 | mass density (324.95 K, m1 = 1.694): 1144.5 ± 0.8 kg/m3 | mass density (325.25 K, m1 = 5.282): 1393.7 ± 1 kg/m3
